This note sets out measurements from ChEMBL document CHEMBL1125608, “Synthesis and biological activity of angiotensin II analogues containing a Val-His replacement, Val psi[CH(CONH2)NH]His” (J Med Chem, 1991).

pIC50: −log10 of the molar value. Peptide text beside a SMILES is read from it. * marks the point of attachment. Propanoyl(3-(4-MeO-Ph)) = COc1ccc(CCC(=O)*)cc1; Desaminotyrosyl = O=C(CCc1ccc(O)cc1)*; Cbz = O=C(OCc1ccccc1)*

The species entered for one assay is Cavia porcellus. Briefly: The compound was tested for its inhibitory activity as antagonist of AI on guinea pig ileum. Format: functional, organism-based.
For assay [1], the target named is Angiotensin II receptor (Cavia porcellus). Briefly: Inhibitory activity as antagonist of AII on guinea pig ileum.
Assay [2] has as its system Angiotensin II receptor (Oryctolagus cuniculus). Briefly: Displacement of [3H]Angiotensin II (300 ng/mL) from rabbit adrenal cortex.
The target in assay [3] is Angiotensin II receptor (Cavia porcellus). Briefly: The compound was tested for its inhibitory activity as antagonist of AII on guinea pig ileum.

Compound `CC[C@H](C)[C@H](NC(=O)[C@@H]1CCCN1C(=O)[C@H](Cc1c[nH]cn1)NC(=O)[C@@H](NC(=O)OCc1ccccc1)C(C)C)C(=O)O` (Cbz-VHPI-OH) gave a negative-log IC50 (pIC50) in the assay listed under Cavia porcellus of less than 4.82. In assay [1], this compound showed an IC50 greater than 15000 nM. The compound also showed a Displacement in assay [2] of 10%.

The compound `CC[C@H](C)[C@H](NC(=O)[C@@H]1CCCN1C(=O)[C@H](Cc1c[nH]cn1)NC(C(N)=O)[C@@H](NC(=O)OCc1ccccc1)C(C)C)C(=O)O` (some centres undefined) gave a negative logarithm of the IC50 (pIC50) in the assay filed under Cavia porcellus of less than 4.82. Further, the half-maximal inhibitory concentration (IC50) in assay [3] was greater than 15000 nM.

`CC[C@H](C)[C@H](NC(=O)[C@@H]1CCCN1C(=O)[C@H](Cc1c[nH]cn1)NC(=O)[C@@H](NC(=O)[C@H](Cc1ccc(O)cc1)NC(=O)[C@@H](NC(=O)[C@H](CCCN=C(N)N)NC(=O)CNC)C(C)C)[C@@H](C)CC)C(=O)O`: the pIC50 in the assay filed under Cavia porcellus was 9.77.

Compound `CNCC(=O)N[C@@H](CCCNC(=N)N)C(=O)N[C@H](C(=O)N[C@@H](Cc1ccc(O)cc1)C(=O)N[C@H](C(=O)N[C@@H](Cc1cnc[nH]1)C(=O)N1CCC[C@H]1C(=O)N[C@@H](C)C(=O)O)C(C)C)C(C)C` [SARALASIN] gave a negative logarithm of the IC50 (pIC50) in the assay filed under Cavia porcellus of 10.32.

In the assay filed under Cavia porcellus, `CC[C@H](C)[C@H](NC(=O)[C@@H]1CCCN1C(=O)[C@H](Cc1c[nH]cn1)NC(=O)[C@@H](NC(=O)CCc1ccc(O)cc1)C(C)C)C(=O)O` (Desaminotyrosyl-VHPI-OH) showed a pIC50 of less than 4.82. The compound also showed an IC50 in assay [1] greater than 15000 nM. The compound also registered a Displacement in assay [2] of 0%.

With `CC[C@H](C)[C@H](NC(=O)[C@@H]1CCCN1C(=O)[C@H](Cc1c[nH]cn1)NC(=O)[C@@H](NC(=O)CCc1ccc(OC)cc1)C(C)C)C(=O)O` ({Propanoyl(3-(4-MeO-Ph))}-VHPI-OH), the pIC50 in the assay listed under Cavia porcellus is less than 4.82. In assay [1], this compound gave an IC50 greater than 15000 nM. The Displacement in assay [2] was 0%.

In turn, `CC[C@H](C)[C@H](NC(=O)[C@H](Cc1ccc(O)cc1)NC(=O)[C@@H](NC(=O)[C@H](CCCN=C(N)N)NC(=O)CNC)C(C)C)C(=O)N[C@@H](Cc1c[nH]cn1)C(=O)N1CCC[C@H]1C(=O)N[C@@H](C)C(=O)O` had a pIC50 in the assay filed under Cavia porcellus of 9.25.

For the compound `CC[C@H](C)[C@H](NC(=O)[C@@H]1CCCN1C(=O)[C@H](Cc1c[nH]cn1)N[C@H](C(N)=O)[C@@H](NC(=O)[C@H](Cc1ccc(O)cc1)NC(=O)[C@@H](NC(=O)[C@H](CCCN=C(N)N)NC(=O)CNC)C(C)C)C(C)C)C(=O)O`, in the assay filed under Cavia porcellus, the pIC50 was 6.46. The IC50 in assay [1] was determined as 330 nM.

`CC[C@H](C)[C@H](NC(=O)[C@@H]1CCCN1C(=O)[C@H](Cc1c[nH]cn1)NC(=O)[C@@H](NC(=O)[C@H](Cc1ccc(O)cc1)NC(=O)[C@@H](NC(=O)[C@H](CCCN=C(N)N)NC(=O)CNC)C(C)C)C(C)C)C(=O)O` had a pIC50 in the assay filed under Cavia porcellus of 9.29. In assay [1], this compound registered an IC50 of 0.45 nM. In addition, the Displacement in assay [2] was determined as 100%.

The pIC50 is the IC50 on a negative log10 scale, so that one unit is a factor of ten. As a reminder, the IC50 is the concentration at which inhibition is half-maximal.
